Results: ChEMBL document CHEMBL3885861, “Open TG-GATES”

Species: Rattus norvegicus
Experiment: Open TG-GATES - Regimen: Single
Type: toxicity, organism-based, Sprague-Dawley
Design: regimen Single, gender Male, age 6 weeks
Settings: in vivo, po, 300 mg/kg, route gavage, dose level Middle; for APTT / Bas / Eos / Fbg / Hb / Ht / Lym / MCH / MCHC / MCV / Mono / Neu / PT / Plat / RBC / Ret / WBC: tissue Blood; for KIDNEY_L / KIDNEY_R / KIDNEY_TOTAL: tissue Kidney; for LIVER: tissue Liver; for A/G / ALP / ALT / AST / BUN / CRE / Ca / Cl / DBIL / GLC / IP / K / LDH / Na / PL / RALB / TBIL / TC / TG / TP / gamma-GTP: tissue Plasma

## COc1ccc(Cl)cc1C(=O)NCCc1ccc(S(=O)(=O)NC(=O)NC2CCCCC2)cc1 [GLYBURIDE]
3 h
  TERMINAL_BW: 217.4 g
  APTT: 18.5 s
  Bas: 0%
  Eos: 1%
  Fbg: 239 mg/dL
  Hb: 13.3 g/dL
  Ht: 40.4%
  Lym: 72%
  MCH: 20.3 pg
  MCHC: 32.9%
  MCV: 61.7 fL
  Mono: 2.6%
  Neu: 23.8%
  PT: 12.6 s
  Plat: 139.4 x10_4/uL
  RBC: 655.2 x10_4/ul
  Ret: 8.6%
  WBC: 79 x10_2/uL
  KIDNEY_L: 1 g
  KIDNEY_R: 1 g
  KIDNEY_TOTAL: 1.9 g
  LIVER: 9.7 g
  A/G: 1.5
  ALP: 1040 IU/L
  ALT: 46.4 IU/L
  AST: 70.8 IU/L
  BUN: 12.2 mg/dL
  CRE: 0.3 mg/dL
  Ca: 10.8 mg/dL
  Cl: 103.6 meq/L
  DBIL: 0.1 mg/dL
  GLC: 136.4 mg/dL
  IP: 8.7 mg/dL
  K: 3.7 meq/L
  LDH: 143.8 IU/L
  Na: 141.2 meq/L
  PL: 165.8 mg/dL
  RALB: 3.5 g/dL
  TBIL: 0.2 mg/dL
  TC: 82.4 mg/dL
  TG: 88 mg/dL
  TP: 5.7 g/dL
  gamma-GTP: 1 IU/L
6 h
  TERMINAL_BW: 216.4 g
  APTT: 18.7 s
  Bas: 0%
  Eos: 0.8%
  Fbg: 215.8 mg/dL
  Hb: 13.4 g/dL
  Ht: 41%
  Lym: 74.4%
  MCH: 20.7 pg
  MCHC: 32.6%
  MCV: 63.6 fL
  Mono: 3%
  Neu: 21%
  PT: 12.9 s
  Plat: 123.3 x10_4/uL
  RBC: 645.6 x10_4/ul
  Ret: 8.3%
  WBC: 114.4 x10_2/uL
  KIDNEY_L: 1 g
  KIDNEY_R: 0.9 g
  KIDNEY_TOTAL: 1.9 g
  LIVER: 9.6 g
  A/G: 1.6
  ALP: 903.6 IU/L
  ALT: 33.6 IU/L
  AST: 62.2 IU/L
  BUN: 11.8 mg/dL
  CRE: 0.3 mg/dL
  Ca: 10.8 mg/dL
  Cl: 103.6 meq/L
  DBIL: 0.1 mg/dL
  GLC: 161.4 mg/dL
  IP: 9 mg/dL
  K: 3.8 meq/L
  LDH: 134.8 IU/L
  Na: 140.8 meq/L
  PL: 139.2 mg/dL
  RALB: 3.4 g/dL
  TBIL: 0.2 mg/dL
  TC: 72.4 mg/dL
  TG: 69.4 mg/dL
  TP: 5.7 g/dL
  gamma-GTP: 0.8 IU/L
